The results in this text go back to patent US20250236608A1, “EGFR INHIBITORS” (Blueprint Medicines Corporation, priority 2022, published 2025).

SMILES strings stand for the structures.

One experiment addresses EGFR L858R (Homo sapiens (Human), UniProt P00533, L858R). Description: Biochemical EGFR inhibition assay, EGFR L858R. The note with it: Caliper mobility shift; 1.0 mM ATP or ATP Km; read-out: Enz EGFR_L858R IC50.
The target in a further experiment is EGFR (d746-750) (Homo sapiens (Human), UniProt P00533, DEL746-750). Description: Biochemical EGFR inhibition assay, EGFR (d746-750). The conditions noted are these: Caliper mobility shift; 1.0 mM ATP or ATP Km; read-out: Enz EGFR_Exon19-del746-750 IC50.
The target of experiment [1] is pEGFR (Tyr1068) in PC-9 cells (Ex19Del) (Homo sapiens (Human), UniProt P00533, DEL746-750). Kind of experiment: PC-9 pEGFR AlphaLISA assay. The class given is cell-based. The conditions noted are these: 4 hours incubation, p-EGFR (Tyr1068) AlphaLISA, read-out: Ext pEGFR_PC-9 Ex19Del IC50. An outline of the steps: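 Compounds are added in ten 4-fold dilutions to adherent cells grown in serum-containing (10% FBS) phenol-free DMEM and left for 4 hours at 37° C. Phosphorylated receptor in lysates is quantified by bead-based AlphaLISA. IC50 values derive from inhibition plotted against log dose.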

Broadly, the IC50 is the concentration needed to halve the response being measured.

EGFR L858R, sequence (P00533 25-1210 L858R): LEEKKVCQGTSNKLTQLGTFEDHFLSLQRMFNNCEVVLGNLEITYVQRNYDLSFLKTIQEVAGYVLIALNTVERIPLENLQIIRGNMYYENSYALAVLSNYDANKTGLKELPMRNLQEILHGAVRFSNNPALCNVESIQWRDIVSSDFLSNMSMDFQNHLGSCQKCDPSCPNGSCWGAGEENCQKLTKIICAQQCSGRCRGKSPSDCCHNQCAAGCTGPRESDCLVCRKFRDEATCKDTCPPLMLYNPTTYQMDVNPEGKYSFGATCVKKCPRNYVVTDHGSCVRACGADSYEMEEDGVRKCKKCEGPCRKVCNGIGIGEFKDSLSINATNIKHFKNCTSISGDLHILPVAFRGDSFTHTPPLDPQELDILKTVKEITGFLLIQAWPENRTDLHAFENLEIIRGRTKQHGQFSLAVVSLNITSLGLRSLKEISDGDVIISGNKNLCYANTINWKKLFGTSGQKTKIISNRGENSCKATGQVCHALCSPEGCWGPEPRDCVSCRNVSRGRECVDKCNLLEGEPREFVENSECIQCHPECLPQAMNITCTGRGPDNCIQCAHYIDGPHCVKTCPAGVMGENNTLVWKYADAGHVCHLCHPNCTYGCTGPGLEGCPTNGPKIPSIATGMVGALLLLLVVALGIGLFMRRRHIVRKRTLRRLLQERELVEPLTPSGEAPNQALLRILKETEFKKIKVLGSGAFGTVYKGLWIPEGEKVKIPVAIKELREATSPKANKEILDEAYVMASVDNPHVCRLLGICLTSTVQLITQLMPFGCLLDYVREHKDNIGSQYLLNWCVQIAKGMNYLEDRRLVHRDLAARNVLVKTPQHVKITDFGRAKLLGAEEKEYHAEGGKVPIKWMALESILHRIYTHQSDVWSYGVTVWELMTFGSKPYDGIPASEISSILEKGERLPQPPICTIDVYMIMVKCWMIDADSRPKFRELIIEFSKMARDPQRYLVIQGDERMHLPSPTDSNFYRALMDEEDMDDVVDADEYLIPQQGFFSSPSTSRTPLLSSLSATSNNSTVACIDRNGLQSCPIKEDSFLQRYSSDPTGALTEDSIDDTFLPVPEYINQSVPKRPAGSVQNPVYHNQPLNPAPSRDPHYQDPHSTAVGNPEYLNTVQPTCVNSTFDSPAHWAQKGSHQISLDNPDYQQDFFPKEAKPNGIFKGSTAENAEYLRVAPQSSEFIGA
EGFR (d746-750), sequence (P00533 other isoform, or with tags, fused parts or gaps del 1-694/del 746-750 limits assumed): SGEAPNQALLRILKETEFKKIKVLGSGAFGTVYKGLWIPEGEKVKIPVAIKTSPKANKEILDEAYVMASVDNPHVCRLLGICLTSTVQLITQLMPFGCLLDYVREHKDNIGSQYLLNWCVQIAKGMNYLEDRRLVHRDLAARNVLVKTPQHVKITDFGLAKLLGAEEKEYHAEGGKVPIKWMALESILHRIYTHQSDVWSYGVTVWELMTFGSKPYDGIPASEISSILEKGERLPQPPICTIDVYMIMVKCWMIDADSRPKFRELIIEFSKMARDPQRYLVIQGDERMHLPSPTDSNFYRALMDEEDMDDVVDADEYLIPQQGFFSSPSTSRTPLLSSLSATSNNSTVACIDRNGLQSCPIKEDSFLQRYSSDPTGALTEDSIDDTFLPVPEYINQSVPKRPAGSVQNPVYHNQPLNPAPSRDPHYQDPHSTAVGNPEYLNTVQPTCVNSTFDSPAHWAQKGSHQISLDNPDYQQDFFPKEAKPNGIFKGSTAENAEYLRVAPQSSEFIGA
pEGFR (Tyr1068) in PC-9 cells (Ex19Del), sequence (P00533 other isoform, or with tags, fused parts or gaps del 746-750): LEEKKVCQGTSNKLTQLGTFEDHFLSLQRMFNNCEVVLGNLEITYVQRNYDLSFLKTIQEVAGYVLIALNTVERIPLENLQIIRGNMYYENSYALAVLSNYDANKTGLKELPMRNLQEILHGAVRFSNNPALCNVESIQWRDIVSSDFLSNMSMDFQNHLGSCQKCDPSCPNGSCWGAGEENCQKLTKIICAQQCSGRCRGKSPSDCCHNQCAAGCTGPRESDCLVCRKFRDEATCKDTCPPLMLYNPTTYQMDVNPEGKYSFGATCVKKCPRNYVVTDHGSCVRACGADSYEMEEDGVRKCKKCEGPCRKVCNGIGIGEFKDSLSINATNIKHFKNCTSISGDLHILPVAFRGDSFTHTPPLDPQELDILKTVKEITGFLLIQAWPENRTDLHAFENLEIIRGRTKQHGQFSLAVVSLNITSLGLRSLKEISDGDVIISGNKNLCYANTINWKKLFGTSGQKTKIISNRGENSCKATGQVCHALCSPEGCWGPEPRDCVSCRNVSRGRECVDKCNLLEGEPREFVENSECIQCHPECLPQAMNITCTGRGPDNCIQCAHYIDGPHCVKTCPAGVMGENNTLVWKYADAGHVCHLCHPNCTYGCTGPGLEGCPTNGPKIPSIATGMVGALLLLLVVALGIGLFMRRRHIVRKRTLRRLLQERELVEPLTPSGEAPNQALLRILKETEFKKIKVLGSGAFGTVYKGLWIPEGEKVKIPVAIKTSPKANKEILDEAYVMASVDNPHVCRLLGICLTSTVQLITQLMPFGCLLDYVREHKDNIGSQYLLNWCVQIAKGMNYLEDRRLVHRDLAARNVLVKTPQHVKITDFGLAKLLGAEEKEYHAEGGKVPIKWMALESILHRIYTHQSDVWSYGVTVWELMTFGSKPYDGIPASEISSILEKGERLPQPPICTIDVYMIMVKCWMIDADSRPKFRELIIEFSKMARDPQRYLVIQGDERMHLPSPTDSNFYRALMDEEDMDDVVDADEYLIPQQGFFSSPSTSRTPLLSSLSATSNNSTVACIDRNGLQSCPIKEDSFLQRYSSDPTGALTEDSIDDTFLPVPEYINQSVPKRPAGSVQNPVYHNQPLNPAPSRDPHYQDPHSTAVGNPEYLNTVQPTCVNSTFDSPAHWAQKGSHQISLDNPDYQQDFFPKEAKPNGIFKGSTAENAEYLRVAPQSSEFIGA

In the case of `COc1cc2ncnc(-c3cn(C)nc3-c3ccccc3)c2cc1N1CCC[C@H](O)C1` [Example 164, (S)-1-(7-methoxy-4-(1-methyl-3-phenyl-1H-pyrazol-4-yl)quinazolin-6-yl) piperidin-3-ol], the IC50 at EGFR L858R turned out to be 2.9 nM; at EGFR (d746-750) it was 1.7 nM; in experiment [1], 6.4 nM.

Regarding `CN(C)CCOc1cc2ncnc(-c3cn(C)nc3-c3ccccc3)c2cc1NC(=O)C12CC(C1)C2` [Example 299, N-(7-(2-(dimethylamino)ethoxy)-4-(1-methyl-3-phenyl-1H-pyrazol-4-yl)quinazolin-6-yl)bicyclo[1.1.1]pentane-1-carboxamide], the IC50 was determined as 15.3 nM at EGFR L858R, 5.4 nM at EGFR (d746-750) and 7.1 nM in experiment [1].

With `COc1cc2ncnc(-c3cn(C)nc3-c3ccccc3)c2cc1NC(=O)[C@@]1(C)CCCO1` (single isomer, unassigned) [Example 259, (R)—N-(7-methoxy-4-(1-methyl-3-phenyl-1H-pyrazol-4-yl)quinazolin-6-yl)-2-methyltetrahydrofuran-2-carboxamide or (S)—N-(7-methoxy-4-(1-methyl-3-phenyl-1H-pyrazol-4-yl)quinazolin-6-yl)-2-methyltetrahydrofuran-2-carboxamide], the IC50 on EGFR L858R came out at 2.6 nM; on EGFR (d746-750) it was 1.1 nM; in experiment [1] it was 4.2 nM.

`COc1cc2ncnc(-c3cn(C)nc3-c3ccc(F)cc3F)c2nc1NC(=O)[C@@]12C[C@@H]1CN(C)C2` (single isomer, unassigned) [Example 423, (1S,5S)—N-(4-(3-(2,4-difluorophenyl)-1-methyl-1H-pyrazol-4-yl)-7-methoxypyrido[3,2-d]pyrimidin-6-yl)-3-methyl-3-azabicyclo[3.1.0]hexane-1-carboxamide or (1R,5R)—N-(4-(3-(2,4-difluorophenyl)-1-methyl-1H-pyrazol-4-yl)-7-methoxypyrido[3,2-d]pyrimidin-6-yl)-3-methyl-3-azabicyclo[3.1.0]hexane-1-carboxamide]: the IC50 at EGFR L858R stood at 4.1 nM; at EGFR (d746-750), 1.6 nM; in experiment [1], 3.8 nM.

As for `Cn1cc(-c2ncnc3cc(OC(F)F)c(NC(=O)C4CC4)cc23)c(-c2ccccc2)n1` [Example 279, N-(7-(difluoromethoxy)-4-(1-methyl-3-phenyl-1H-pyrazol-4-yl)quinazolin-6-yl)cyclopropanecarboxamide], the IC50 on EGFR L858R turned out to be 3.3 nM; at EGFR (d746-750), 1.8 nM; in experiment [1], 6.5 nM.

As to `COc1cc2ncnc(-c3cn(CC(F)F)nc3-c3ccccc3)c2cc1NC(=O)c1scnc1C` [Example 273, N-(4-(1-(2,2-difluoroethyl)-3-phenyl-1H-pyrazol-4-yl)-7-methoxyquinazolin-6-yl)-4-methylthiazole-5-carboxamide], the IC50 at EGFR L858R was 1.5 nM; at EGFR (d746-750) it was 1 nM; in experiment [1], 0.6 nM.

With `CCOc1cc2ncnc(-c3cn(C)nc3-c3ccccc3)c2cc1OC(=O)N1CCN(C)C[C@@H]1C` [Example 96, 7-ethoxy-4-(1-methyl-3-phenyl-1H-pyrazol-4-yl)quinazolin-6-yl(S)-2,4-dimethylpiperazine-1-carboxylate], the IC50 on EGFR L858R was 1.6 nM; at EGFR (d746-750), 1.1 nM; in experiment [1], 1.9 nM.

For `COc1cc2ncnc(-c3cn(CC(F)F)nc3-c3ccccc3)c2cc1NC(=O)c1cnc(C)s1` [Example 274, N-(4-(1-(2,2-difluoroethyl)-3-phenyl-1H-pyrazol-4-yl)-7-methoxyquinazolin-6-yl)-2-methylthiazole-5-carboxamide], the results for the IC50 (on EGFR L858R; at EGFR (d746-750); in experiment [1]) were 1.5 nM, 0.9 nM and 0.6 nM, respectively.

On to `CCn1cc(-c2ncnc3cc(OC)c(NC(=O)c4cnn(CCN(C)C)c4)nc23)c(-c2ccccc2)n1` [Example 319, 1-(2-(dimethylamino)ethyl)-N-(4-(1-ethyl-3-phenyl-1H-pyrazol-4-yl)-7-methoxypyrido[3,2-d]pyrimidin-6-yl)-1H-pyrazole-4-carboxamide], for which the IC50 on EGFR L858R was determined as 1.1 nM; on EGFR (d746-750), 0.7 nM; in experiment [1], 0.4 nM.

For the compound `COc1cc2ncnc(-c3cn(C)nc3-c3ccccc3)c2nc1NC(=O)[C@]1(C(F)(F)F)CCCN1C` (single isomer, unassigned) [Example 430, (S)—N-(7-methoxy-4-(1-methyl-3-phenyl-1H-pyrazol-4-yl)pyrido[3,2-d]pyrimidin-6-yl)-1-methyl-2-(trifluoromethyl) pyrrolidine-2-carboxamide or (R)—N-(7-methoxy-4-(1-methyl-3-phenyl-1H-pyrazol-4-yl)pyrido[3,2-d]pyrimidin-6-yl)-1-methyl-2-(trifluoromethyl) pyrrolidine-2-carboxamide], the half-maximal inhibitory concentration (IC50) on EGFR L858R was determined as 19 nM; on EGFR (d746-750), 3.7 nM; in experiment [1], 16 nM.

Take `COc1cc2ncnc(-c3cn(C)nc3-c3ccccc3F)c2cc1NC(=O)[C@]12COC[C@H]1C2` (single isomer, unassigned) [Example 241, (1S,5S)—N-(4-(3-(2-fluorophenyl)-1-methyl-1H-pyrazol-4-yl)-7-methoxyquinazolin-6-yl)-3-oxabicyclo[3.1.0]hexane-1-carboxamide or (1R,5R)—N-(4-(3-(2-fluorophenyl)-1-methyl-1H-pyrazol-4-yl)-7-methoxyquinazolin-6-yl)-3-oxabicyclo[3.1.0]hexane-1-carboxamide]: the IC50 was 3 nM on EGFR L858R, 1.5 nM at EGFR (d746-750) and 2 nM in experiment [1].

For the compound `COc1cc2ncnc(-c3cn(C)nc3-c3ccccc3)c2cc1N1CCN(C)C1=O` [Example 176, 1-(7-methoxy-4-(1-methyl-3-phenyl-1H-pyrazol-4-yl)quinazolin-6-yl)-3-methylimidazolidin-2-one], the IC50 was 5.4 nM on EGFR L858R, 3 nM at EGFR (d746-750) and 11 nM in experiment [1].

As to `COc1cc2ncnc(-c3cn(CC(F)F)nc3-c3ccccc3)c2cc1NC(=O)c1cccnc1` [Example 353, N-(4-(1-(2,2-difluoroethyl)-3-phenyl-1H-pyrazol-4-yl)-7-methoxyquinazolin-6-yl)nicotinamide], the IC50 is 2.3 nM on EGFR L858R, 1.3 nM on EGFR (d746-750) and 1.6 nM in experiment [1].

For `COc1cc2ncnc(-c3cn(C)nc3-c3ccccc3)c2nc1NC(=O)[C@]12CN(C)C[C@H]1C2(F)F` (single isomer, unassigned) [Example 416, (1R,5S)-6,6-difluoro-N-(7-methoxy-4-(1-methyl-3-phenyl-1H-pyrazol-4-yl)pyrido[3,2-d]pyrimidin-6-yl)-3-methyl-3-azabicyclo[3.1.0]hexane-1-carboxamide or (1S,5R)-6,6-difluoro-N-(7-methoxy-4-(1-methyl-3-phenyl-1H-pyrazol-4-yl)pyrido[3,2-d]pyrimidin-6-yl)-3-methyl-3-azabicyclo[3.1.0]hexane-1-carboxamide], the results for the IC50 (on EGFR L858R; at EGFR (d746-750); in experiment [1]) were 1.8 nM, 1 nM and 0.8 nM, respectively.

Regarding `COc1cc2ncnc(-c3cn(C)nc3-c3ccccc3)c2cc1NC(=O)c1cnn(CC(F)(F)F)c1` [Example 203, N-(7-methoxy-4-(1-methyl-3-phenyl-1H-pyrazol-4-yl)quinazolin-6-yl)-1-(2,2,2-trifluoroethyl)-1H-pyrazole-4-carboxamide], the IC50 at EGFR L858R worked out at 2.1 nM; at EGFR (d746-750), 1.1 nM; in experiment [1], 4.9 nM.

Consider `COc1cc2ncnc(-c3cn(C)nc3-c3ccccc3)c2cc1NC(=O)[C@@H]1CCN(C)C1` [Example 210, (R)-N-(7-methoxy-4-(1-methyl-3-phenyl-1H-pyrazol-4-yl)quinazolin-6-yl)-1-methylpyrrolidine-3-carboxamide], for which the figures for the IC50 (at EGFR L858R; on EGFR (d746-750); in experiment [1]) were 1.1 nM, 0.6 nM and 1.7 nM, respectively.

In the case of `COc1cc2ncnc(-c3cn(C)nc3-c3ccccc3)c2cc1O[C@H]1CN(C)C[C@@H]1F` [Example 6, 6-(((3S,4S)-4-fluoro-1-methylpyrrolidin-3-yl)oxy)-7-methoxy-4-(1-methyl-3-phenyl-1H-pyrazol-4-yl)quinazoline], the IC50 on EGFR L858R is 2.3 nM; at EGFR (d746-750) it was 1.7 nM; in experiment [1] it was 3.5 nM.

In the case of `COc1cc2ncnc(-c3cn(CC(F)F)nc3-c3ccccc3)c2cc1NC(=O)C(F)F` [Example 269, N-(4-(1-(2,2-difluoroethyl)-3-phenyl-1H-pyrazol-4-yl)-7-methoxyquinazolin-6-yl)-2,2-difluoroacetamide], the IC50 at EGFR L858R was found to be 1.3 nM; on EGFR (d746-750) it was 0.9 nM; in experiment [1], 0.9 nM.

Regarding `COc1cc2ncnc(-c3cn(C)nc3-c3ccccc3)c2nc1-c1ccc2c(c1)CN(C)C2=O` [Example 153, 5-(7-methoxy-4-(1-methyl-3-phenyl-1H-pyrazol-4-yl)pyrido[3,2-d]pyrimidin-6-yl)-2-methylisoindolin-1-one], the IC50 on EGFR L858R came out at 1 nM; on EGFR (d746-750), 0.5 nM; in experiment [1], 0.9 nM.

Take `CN(C)CCOc1cc2ncnc(-c3cn(C)nc3-c3ccccc3)c2nc1NC(=O)C12COCC1C2` (stereo not drawn) [Example 435, N-(7-(2-(dimethylamino)ethoxy)-4-(1-methyl-3-phenyl-1H-pyrazol-4-yl)pyrido[3,2-d]pyrimidin-6-yl)-3-oxabicyclo[3.1.0]hexane-1-carboxamide]: the IC50 on EGFR L858R amounted to 25.8 nM; on EGFR (d746-750) it was 3.1 nM; in experiment [1], 9.7 nM.
